Data reported in US20230293517A1, “ANTAGONIST COMPOUNDS” (AdoRx Therapeutics Limited, priority 2020, published 2023).

Legend:
[1] = target: human Adenosine A1 receptor (Homo sapiens (Human), UniProt P30542); assay: Adenosine receptor TR-FRET binding assay (A1); conditions: inhibition of binding of 100 nM CA200645, CHO cell membranes
Procedure, shortened: (§1)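 Compounds were serially diluted 1:3 in DMSO, then incubated with CHO membranes bearing Tb-tagged human receptor plus CA200645 (A2b 30 nM; A1, A2a, A3 100 nM) for 2 h at room temperature. Time-resolved FRET was read, non-specific binding subtracted using 10 μM XAC, and Ki calculated.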

[2] = target: human Adenosine A2a receptor (Homo sapiens (Human), UniProt P29274); assay: Adenosine receptor TR-FRET binding assay (A2a); conditions: inhibition of binding of 100 nM CA200645, CHO cell membranes
Chain of human Adenosine A2a receptor (P29274 whole entry): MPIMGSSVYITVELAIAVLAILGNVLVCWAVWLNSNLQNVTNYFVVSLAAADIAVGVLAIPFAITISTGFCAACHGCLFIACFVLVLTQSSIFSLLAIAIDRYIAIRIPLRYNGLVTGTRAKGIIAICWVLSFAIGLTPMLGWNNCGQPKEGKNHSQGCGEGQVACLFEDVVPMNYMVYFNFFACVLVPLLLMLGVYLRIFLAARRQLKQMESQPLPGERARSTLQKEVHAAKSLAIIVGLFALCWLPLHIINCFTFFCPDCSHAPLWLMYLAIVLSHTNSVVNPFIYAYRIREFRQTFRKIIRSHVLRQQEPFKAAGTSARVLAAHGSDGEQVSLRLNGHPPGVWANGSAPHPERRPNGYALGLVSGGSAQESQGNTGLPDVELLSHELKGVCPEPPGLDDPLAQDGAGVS
Procedure, shortened: as §1

[3] = target: human Adenosine A2b receptor (Homo sapiens (Human), UniProt P29275); assay: Adenosine receptor TR-FRET binding assay (A2b); conditions: TR-FRET, inhibition of binding of 30 nM CA200645, CHO cell membranes
Chain of human Adenosine A2b receptor (P29275 whole entry): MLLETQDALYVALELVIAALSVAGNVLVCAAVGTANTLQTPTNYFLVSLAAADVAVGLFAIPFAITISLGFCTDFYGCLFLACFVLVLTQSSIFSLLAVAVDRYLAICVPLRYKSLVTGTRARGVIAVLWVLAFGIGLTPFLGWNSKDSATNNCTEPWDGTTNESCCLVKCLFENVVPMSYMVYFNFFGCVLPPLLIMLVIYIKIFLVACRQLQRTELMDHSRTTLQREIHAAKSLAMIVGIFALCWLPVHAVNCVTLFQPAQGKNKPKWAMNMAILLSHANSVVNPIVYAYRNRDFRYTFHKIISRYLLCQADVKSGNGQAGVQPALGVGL
Procedure, shortened: as §1

[4] = target: human Adenosine A3 receptor (Homo sapiens (Human), UniProt P0DMS8); assay: Adenosine receptor TR-FRET binding assay (A3); conditions: inhibition of binding of 100 nM CA200645, CHO cell membranes
Chain of human Adenosine A3 receptor (P0DMS8 whole entry): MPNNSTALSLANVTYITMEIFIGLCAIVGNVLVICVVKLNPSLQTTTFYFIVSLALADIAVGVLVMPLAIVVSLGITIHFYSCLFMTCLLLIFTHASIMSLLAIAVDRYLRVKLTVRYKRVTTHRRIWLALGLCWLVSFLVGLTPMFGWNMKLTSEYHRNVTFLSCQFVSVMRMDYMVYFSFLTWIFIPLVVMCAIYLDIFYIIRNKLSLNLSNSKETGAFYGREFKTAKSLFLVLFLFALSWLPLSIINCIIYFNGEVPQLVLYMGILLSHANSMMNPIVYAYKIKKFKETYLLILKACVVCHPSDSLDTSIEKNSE
Procedure, shortened: as §1

Chain of human Adenosine A1 receptor (P30542 whole entry): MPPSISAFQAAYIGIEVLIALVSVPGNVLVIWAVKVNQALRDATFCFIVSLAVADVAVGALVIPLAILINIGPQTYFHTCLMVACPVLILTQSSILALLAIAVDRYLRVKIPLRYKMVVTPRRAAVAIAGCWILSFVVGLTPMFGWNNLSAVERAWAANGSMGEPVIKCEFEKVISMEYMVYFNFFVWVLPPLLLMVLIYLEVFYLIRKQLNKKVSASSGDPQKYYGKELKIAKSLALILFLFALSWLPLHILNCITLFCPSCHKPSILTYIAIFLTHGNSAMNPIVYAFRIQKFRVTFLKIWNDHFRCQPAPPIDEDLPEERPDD

SMILES	Ki [1] [nM]	Ki [2] [nM]	Ki [3] [nM]	Ki [4] [nM]
Cc1cc(-c2sc(NC(=O)N3CCC(S(C)(=O)=O)CC3)nc2-c2cccc(C#N)c2)cc(C)n1 [Example 6.95, N-[4-(3-Cyanophenyl)-5-(2,6-dimethyl-4-pyridyl)thiazol-2-yl]-4-methylsulfonyl-piperidine-1-carboxamide]	29	1.05	4.6	560
Cc1cc(-c2sc(NC(=O)N3C[C@@H]4C[C@H]3CN4C)nc2-c2cccc(C#N)c2)cc(C)n1 [Example 6.102, (1S,4S)-N-[4-(3-Cyanophenyl)-5-(2,6-dimethyl-4-pyridyl)thiazol-2-yl]-5-methyl-2,5-diazabicyclo[2.2.1]heptane-2-carboxamide]	64	7.42	10.5	195
Cc1cc(-c2sc(NC(=O)N3CCC(C)(C#N)C3)nc2-c2cccc(C#N)c2)cc(C2COC2)n1 (centres unmarked) [Example 6.110, 3-Cyano-N-[4-(3-cyanophenyl)-5-[2-methyl-6-(oxetan-3-yl)-4-pyridyl]thiazol-2-yl]-3-methyl-pyrrolidine-1-carboxamide]	13	0.26	3.6	956
Cc1cc(-c2sc(NC(=O)N3CCC(N)(C#N)CC3)nc2-c2cccc(C#N)c2)cc(C)n1 [Example 7.2, 4-Amino-4-cyano-N-[4-(3-cyanophenyl)-5-(2,6-dimethyl-4-pyridyl)thiazol-2-yl]piperidine-1-carboxamide]	8	0.2	1	337
Cc1cc(-c2sc(NC(=O)N3CCC4(CC3)CNC4=O)nc2-c2cccc(C#N)c2)cc(CO)n1 [Example 9.1]	95	0.78	7	1000

Results, then the compound that gave them:

Ki [1] [nM]	Ki [2] [nM]	Ki [3] [nM]	Ki [4] [nM]	SMILES
63	3.16	10.7	106	Cc1cc(-c2sc(NC(=O)N3CC(=O)N[C@@H](C)C3)nc2-c2cccc(C#N)c2)cc(C)n1 [Example 6.90, (3S)-N-[4-(3-Cyanophenyl)-5-(2,6-dimethyl-4-pyridyl)thiazol-2-yl]-3-methyl-5-oxo-piperazine-1-carboxamide]
30	1.1	3	853	CC(=O)N1C[C@H]2C[C@@H]1CN2C(=O)Nc1nc(-c2cccc(C#N)c2)c(-c2cc(C)nc(C)c2)s1 [Example 6.101, (1R,4R)-5-Acetyl-N-[4-(3-cyanophenyl)-5-(2,6-dimethyl-4-pyridyl)thiazol-2-yl]-2,5-diazabicyclo[2.2.1]heptane-2-carboxamide]
61	0.68	1.7	475	Cc1cc(-c2sc(NC(=O)N3CCC4(CC3)CN(C)C(=O)N4)nc2-c2cccc(C#N)c2)cc(C)n1 [Example 6.103, N-[4-(3-Cyanophenyl)-5-(2,6-dimethyl-4-pyridyl)thiazol-2-yl]-3-methyl-2-oxo-1,3,8-triazaspiro[4.5]decane-8-carboxamide]
69	1.37	2.3	156	Cc1cc(-c2sc(NC(=O)N3CCC4(CN(C)CCO4)C3)nc2-c2cccc(C#N)c2)cc(C(F)F)n1 (centres unmarked) [Example 6.107, N-[4-(3-Cyanophenyl)-5-[2-(difluoromethyl)-6-methyl-4-pyridyl]thiazol-2-yl]-9-methyl-6-oxa-2,9-diazaspiro[4.5]decane-2-carboxamide]
59	1.83	1.8	776	CC(=O)N=S1(=O)CCN(C(=O)Nc2nc(-c3cccc(C#N)c3)c(-c3cc(C)nc(C)c3)s2)CC1 [Example 8, 1-Acetylimino-N-[4-(3-cyanophenyl)-5-(2,6-dimethyl-4-pyridyl)thiazol-2-yl]-1-oxo-1,4-thiazinane-4-carboxamide]
47	0.61	5.3	2020	Cc1cc(-c2sc(NC(=O)N3CC4(COC4)C3)nc2-c2cccc(C#N)c2)cc(CO)n1 [Example 9, N-[4-(3-Cyanophenyl)-5-[2-(hydroxymethyl)-6-methyl-4-pyridyl]thiazol-2-yl]-2-oxa-6-azaspiro[3.3]heptane-6-carboxamide]
